Structures can show the parent of a compound that is named as a salt.
Biological target: T1, recombinant full-length WRN protein (1-1432) (Homo sapiens, UniProt Q14191)
T1 construct: recombinant full-length WRN protein (1-1432)
Assay: WRN unwinding activity, fluorogenic 384-well assay (Example A)
Format: biochemical
Conditions: WRN unwinding activity, 4 hr; Table 2; read-out: 4 hr UNW pIC50 (converted)
Procedure, shortened: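 200 pM enzyme (2× stock) preincubated with compound 4 h at ambient temperature, then 200 μM ATP and 12 nM quenched TAMRA-labelled dsDNA (2× stocks) added for 60 min; EDTA-quenched. Buffer 25 mM Tris pH 8.0, 5 mM NaCl, 2 mM MgCl2. Fluorescence at 525/598 nm; pIC50 from four-parameter fit.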

T1 sequence (Q14191 whole entry): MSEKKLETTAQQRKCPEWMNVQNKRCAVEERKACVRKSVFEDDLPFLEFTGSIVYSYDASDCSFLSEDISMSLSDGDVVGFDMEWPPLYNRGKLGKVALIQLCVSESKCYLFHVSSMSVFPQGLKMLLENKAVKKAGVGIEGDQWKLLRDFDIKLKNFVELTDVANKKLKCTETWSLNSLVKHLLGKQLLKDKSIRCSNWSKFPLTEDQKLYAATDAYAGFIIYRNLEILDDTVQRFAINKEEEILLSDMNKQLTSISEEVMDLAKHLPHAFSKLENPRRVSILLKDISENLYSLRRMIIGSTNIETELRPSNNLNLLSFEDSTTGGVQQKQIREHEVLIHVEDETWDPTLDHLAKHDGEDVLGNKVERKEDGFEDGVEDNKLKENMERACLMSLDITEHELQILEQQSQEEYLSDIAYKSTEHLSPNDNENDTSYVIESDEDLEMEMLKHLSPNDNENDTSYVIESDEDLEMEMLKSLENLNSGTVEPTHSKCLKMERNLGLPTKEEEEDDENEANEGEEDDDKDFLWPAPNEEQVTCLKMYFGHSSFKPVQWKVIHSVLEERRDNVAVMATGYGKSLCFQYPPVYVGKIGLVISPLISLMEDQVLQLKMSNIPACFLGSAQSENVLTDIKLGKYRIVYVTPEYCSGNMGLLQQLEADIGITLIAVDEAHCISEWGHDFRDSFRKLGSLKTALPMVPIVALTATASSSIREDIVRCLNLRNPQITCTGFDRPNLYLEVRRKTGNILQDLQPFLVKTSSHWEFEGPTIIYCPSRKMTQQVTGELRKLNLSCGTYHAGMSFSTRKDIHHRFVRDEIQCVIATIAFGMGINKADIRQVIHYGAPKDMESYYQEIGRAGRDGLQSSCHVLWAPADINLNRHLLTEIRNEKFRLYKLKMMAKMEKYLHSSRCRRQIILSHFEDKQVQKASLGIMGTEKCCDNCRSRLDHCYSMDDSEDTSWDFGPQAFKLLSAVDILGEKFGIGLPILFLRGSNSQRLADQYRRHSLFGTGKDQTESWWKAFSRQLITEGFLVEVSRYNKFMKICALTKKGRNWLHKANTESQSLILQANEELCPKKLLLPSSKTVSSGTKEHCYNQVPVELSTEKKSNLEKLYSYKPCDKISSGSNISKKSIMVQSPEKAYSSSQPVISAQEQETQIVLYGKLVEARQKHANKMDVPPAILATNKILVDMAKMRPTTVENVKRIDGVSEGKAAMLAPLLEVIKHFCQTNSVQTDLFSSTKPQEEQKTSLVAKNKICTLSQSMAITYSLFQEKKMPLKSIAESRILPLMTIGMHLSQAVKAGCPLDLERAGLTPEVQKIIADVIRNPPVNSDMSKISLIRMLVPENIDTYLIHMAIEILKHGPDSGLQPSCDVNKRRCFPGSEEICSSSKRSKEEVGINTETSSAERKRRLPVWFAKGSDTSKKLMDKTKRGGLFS

## Cc1nc2cc(S(=O)(=O)N(C)c3ccc([C@@H]4C[C@@H](NCC(F)(F)F)C[C@H](C(=O)Nc5ccc(C(F)(F)F)cc5F)[C@H]4C(=O)O)cc3)ccc2n1C (stereo in doubt) [Example 335, rel-(1R,2R,4S,6S)-2-((2-fluoro-4-(trifluoromethyl)phenyl)carbamoyl)-4-((2,2,2-trifluoroethyl)amino)-6-(4-((N,1,2-trimethyl-1H-benzo[d]imidazole)-5-sulfonamido)phenyl)cyclohexane-1-carboxylic acid]
  IC50: 2510 nM

## Cc1cc(N(C)S(=O)(=O)c2ccc3c(c2)nc(C)n3C)ccc1[C@@H]1CCC[C@H](C(=O)Nc2ccc(C(F)(F)F)cc2F)[C@H]1C(=O)O (stereo in doubt) [Example 385, rel-(1R,2R,6S)-2-((2-fluoro-4-(trifluoromethyl)phenyl)carbamoyl)-6-(2-methyl-4-((N,1,2-trimethyl-1H-benzo[d]imidazole)-5-sulfonamido)phenyl)cyclohexane-1-carboxylic acid]
  IC50: 1260 nM

## Cc1nc2cc(S(=O)(=O)N(C)c3ccc([C@H]4C[C@]5(CCCO5)C[C@@H](C(=O)Nc5ccc(C(F)(F)F)cc5F)[C@@H]4C(=O)O)cc3)ccc2n1C (stereo in doubt) [Example 388, rel-(5R,7R,8R,9S)-7-((2-fluoro-4-(trifluoromethyl)phenyl)carbamoyl)-9-(4-((N,1,2-trimethyl-1H-benzo[d]imidazole)-5-sulfonamido)phenyl)-1-oxaspiro[4.5]decane-8-carboxylic acid]
  IC50: 3.98 nM

## Cc1nc2cc(S(=O)(=O)N(C)c3ccc([C@H]4C[C@@H]5COC[C@@H]5[C@@H](C(=O)Nc5ccc(C(F)(F)F)cc5F)[C@@H]4C(=O)O)cc3)ccc2n1C (stereo in doubt) [Example 393, rel-(3aR,4S,5S,6R,7aR)-4-((2-fluoro-4-(trifluoromethyl)phenyl)carbamoyl)-6-(4-((N,1,2-trimethyl-1H-benzo[d]imidazole)-5-sulfonamido)phenyl)octahydroisobenzofuran-5-carboxylic acid]
  IC50: 251 nM

## Cc1nc2cc(S(=O)(=O)N(C)c3ccc([C@@H]4C[C@H]5COC[C@H]5[C@H](C(=O)Nc5ccc(C(F)(F)F)cc5F)[C@H]4C(=O)O)cc3)ccc2n1C (stereo in doubt) [Example 394, rel-(3aR,4S,5S,6R,7aR)-4-((2-fluoro-4-(trifluoromethyl)phenyl)carbamoyl)-6-(4-((N,1,2-trimethyl-1H-benzo[d]imidazole)-5-sulfonamido)phenyl)octahydroisobenzofuran-5-carboxylic acid]
  IC50: 501 nM

## O=C(O)[C@@H]1[C@@H](c2ccc(-c3ccccc3CN3CCOCC3)cc2)CCC[C@H]1C(=O)Nc1ccc(C(F)(F)F)cc1F [Example 4, (1R,2R,6S)-2-((2-fluoro-4-(trifluoromethyl)phenyl)carbamoyl)-6-(2′-(morpholinomethyl)-[1,1′-biphenyl]-4-yl)cyclohexane-1-carboxylic acid]
  IC50: 1000 nM

## O=C(O)[C@@H]1[C@@H](c2ccc(-c3ccn[nH]3)cc2)CCC[C@H]1C(=O)Nc1ccc(C(F)(F)F)cc1F [Example 5, (1R,2S,6R)-2-(4-(1H-pyrazol-5-yl)phenyl)-6-((2-fluoro-4-(trifluoromethyl)phenyl)carbamoyl)cyclohexane-1-carboxylic acid]
  IC50: 20 nM

## O=C(O)[C@@H]1[C@@H](c2ccc(-c3ccncc3)cc2)CCC[C@H]1C(=O)Nc1ccc(C(F)(F)F)cc1F [Example 7, (1R,2R,6S)-2-((2-fluoro-4-(trifluoromethyl)phenyl)carbamoyl)-6-(4-(pyridin-4-yl)phenyl)cyclohexane-1-carboxylic acid]
  IC50: 100 nM

## Cn1cc(-c2ccc([C@H]3CCC[C@@H](C(=O)Nc4ccc(C(F)(F)F)cc4F)[C@@H]3C(=O)O)cc2)cn1 [Example 12, (1R,2R,6S)-2-((2-fluoro-4-(trifluoromethyl)phenyl)carbamoyl)-6-(4-(1-methyl-1H-pyrazol-4-yl)phenyl)cyclohexane-1-carboxylic acid]
  IC50: 63.1 nM

## Cc1ncccc1-c1ccc([C@H]2CCC[C@@H](C(=O)Nc3ccc(C(F)(F)F)cc3F)[C@@H]2C(=O)O)cc1 [Example 13, (1R,2R,6S)-2-((2-fluoro-4-(trifluoromethyl)phenyl)carbamoyl)-6-(4-(2-methylpyridin-3-yl)phenyl)cyclohexane-1-carboxylic acid, formic acid salt]
  IC50: 63.1 nM

## O=C(O)[C@@H]1[C@@H](c2ccc(-c3cccc(O)n3)cc2)CCC[C@H]1C(=O)Nc1ccc(C(F)(F)F)cc1F [Example 14, (1R,2R,6S)-2-((2-fluoro-4-(trifluoromethyl)phenyl)carbamoyl)-6-(4-(6-hydroxypyridin-2-yl)phenyl)cyclohexane-1-carboxylic acid]
  IC50: 7.94 nM

## O=C(O)[C@@H]1[C@@H](c2ccc(-c3cnn4c3CCC4)cc2)CCC[C@H]1C(=O)Nc1ccc(C(F)(F)F)cc1F [Example 17, (1R,2S,6R)-2-(4-(5,6-dihydro-4H-pyrrolo[1,2-b]pyrazol-3-yl)phenyl)-6-((2-fluoro-4-(trifluoromethyl)phenyl)carbamoyl)cyclohexane-1-carboxylic acid]
  IC50: 20 nM

## O=C(O)[C@@H]1[C@@H](c2ccc(-c3ccccc3COC3CCOCC3)cc2)CCC[C@H]1C(=O)Nc1ccc(C(F)(F)F)cc1F [Example 19, (1R,2R,6S)-2-((2-fluoro-4-(trifluoromethyl)phenyl)carbamoyl)-6-(2′-(((tetrahydro-2H-pyran-4-yl)oxy)methyl)-[1,1′-biphenyl]-4-yl) cyclohexane-1-carboxylic acid]
  IC50: 316 nM

## O=C(Cc1cccc(-c2ccc([C@H]3CCC[C@@H](C(=O)Nc4ccc(C(F)(F)F)cc4F)[C@@H]3C(=O)O)cc2)c1)NC1CC1 [Example 20, (1R,2S,6R)-2-(3′-(2-(cyclopropylamino)-2-oxoethyl)-[1,1′-biphenyl]-4-yl)-6-((2-fluoro-4-(trifluoromethyl)phenyl)carbamoyl)cyclohexane-1-carboxylic acid]
  IC50: 6310 nM

## O=C(O)[C@@H]1[C@@H](c2ccc(-c3cccc(COC4CCOCC4)c3)cc2)CCC[C@H]1C(=O)Nc1ccc(C(F)(F)F)cc1F [Example 21, (1R,2R,6S)-2-((2-fluoro-4-(trifluoromethyl)phenyl)carbamoyl)-6-(3′-(((tetrahydro-2H-pyran-4-yl)oxy)methyl)-[1,1′-biphenyl]-4-yl) cyclohexane-1-carboxylic acid]
  IC50: 7940 nM

## Cc1cn2nc(-c3ccc([C@H]4CCC[C@@H](C(=O)Nc5ccc(C(F)(F)F)cc5F)[C@@H]4C(=O)O)cc3)ccc2n1 [Example 22, (1R,2R,6S)-2-((2-fluoro-4-(trifluoromethyl)phenyl)carbamoyl)-6-(4-(2-methylimidazo[1,2-b]pyridazin-6-yl)phenyl)cyclohexane-1-carboxylic acid]
  IC50: 1000 nM

## O=C(O)[C@@H]1[C@@H](c2ccc(-c3cnn(CC4CC4)c3)cc2)CCC[C@H]1C(=O)Nc1ccc(C(F)(F)F)cc1F [Example 23, (1R,2S,6R)-2-(4-(1-(cyclopropylmethyl)-1H-pyrazol-4-yl)phenyl)-6-((2-fluoro-4-(trifluoromethyl)phenyl)carbamoyl)cyclohexane-1-carboxylic acid]
  IC50: 126 nM

## COC(=O)c1cncc(-c2ccc([C@H]3CCC[C@@H](C(=O)Nc4ccc(C(F)(F)F)cc4F)[C@@H]3C(=O)O)cc2)c1 [Example 26, (1R,2R,6S)-2-((2-fluoro-4-(trifluoromethyl)phenyl)carbamoyl)-6-(4-(5-(methoxycarbonyl)pyridin-3-yl)phenyl)cyclohexane-1-carboxylic acid]
  IC50: 10000 nM

## Cc1nsc(-c2ccc([C@H]3CCC[C@@H](C(=O)Nc4ccc(C(F)(F)F)cc4F)[C@@H]3C(=O)O)cc2)c1O [Example 28, (1R,2R,6S)-2-((2-fluoro-4-(trifluoromethyl)phenyl)carbamoyl)-6-(4-(4-hydroxy-3-methylisothiazol-5-yl)phenyl)cyclohexane-1-carboxylic acid]
  IC50: 31.6 nM

## O=C(O)[C@@H]1[C@@H](c2ccc(-c3ccc4nnnn4n3)cc2)CCC[C@H]1C(=O)Nc1ccc(C(F)(F)F)cc1F [Example 29, (1R,2R,6S)-2-((2-fluoro-4-(trifluoromethyl)phenyl)carbamoyl)-6-(4-(tetrazolo[1,5-b]pyridazin-6-yl)phenyl) cyclohexane-1-carboxylic acid]
  IC50: 3980 nM

## O=C(O)[C@@H]1[C@@H](c2ccc(-c3ccc4nncn4n3)cc2)CCC[C@H]1C(=O)Nc1ccc(C(F)(F)F)cc1F [Example 30, (1R,2S,6R)-2-(4-([1,2,4]triazolo[4,3-b]pyridazin-6-yl)phenyl)-6-((2-fluoro-4-(trifluoromethyl)phenyl)carbamoyl)cyclohe xane-1-carboxylic acid]
  IC50: 6310 nM

## COC(=O)c1sccc1-c1ccc([C@H]2CCC[C@@H](C(=O)Nc3ccc(C(F)(F)F)cc3F)[C@@H]2C(=O)O)cc1 [Example 33, (1R,2R,6S)-2-((2-fluoro-4-(trifluoromethyl)phenyl)carbamoyl)-6-(4-(2-(methoxycarbonyl)thiophen-3-yl)phenyl)cyclohexane-1-carboxylic acid]
  IC50: 126 nM

## O=C(O)[C@@H]1[C@@H](c2ccc(-c3ncnc4sccc34)cc2)CCC[C@H]1C(=O)Nc1ccc(C(F)(F)F)cc1F [Example 34, (1R,2R,6S)-2-((2-fluoro-4-(trifluoromethyl)phenyl)carbamoyl)-6-(4-(thieno[2,3-d]pyrimidin-4-yl)phenyl)cyclohexane-1-carboxylic acid]
  IC50: 2510 nM

## O=C(O)[C@@H]1[C@@H](c2ccc(-c3cccnn3)cc2)CCC[C@H]1C(=O)Nc1ccc(C(F)(F)F)cc1F [Example 38, (1R,2R,6S)-2-((2-fluoro-4-(trifluoromethyl)phenyl)carbamoyl)-6-(4-(pyridazin-3-yl)phenyl)cyclohexane-1-carboxylic acid]
  IC50: 1.58 nM
